Results published in the supplement of paper PMC5762512.

Legend:
Test in all cases: IC50 cell viability (Alamar Blue, 96 h)
PER-535 = test system: PER-535
Procedure: (§1)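 Cells in log-phase growth were seeded in 96-well plates and treated with drug for 96 h at 37°C using 8-point serial dilutions from 0.0025 to 10 µM. Viability was read by Alamar Blue fluorescence after 6 h and normalised to positive and vehicle (DMSO) controls. IC50 values were fitted in ActivityBase; the value given is the mean of two independent experiments.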

PER-704 = test system: PER-704
Procedure: as §1

PER-536 = test system: PER-536
Procedure: as §1

PER-624 = test system: PER-624
Procedure: as §1

WI-38 = test system: WI-38
Procedure: as §1

11060 = test system: 11060
Procedure: as §1

A549 = test system: A549
Procedure: as §1

TC797 = test system: TC797
Procedure: as §1

10326 = test system: 10326
Procedure: as §1

TY82 = test system: TY82
Procedure: as §1

HS-27 = test system: HS-27
Procedure: as §1

PER-712 = test system: PER-712
Procedure: as §1

RPMI2650 = test system: RPMI2650
Procedure: as §1

PER-403 = test system: PER-403
Procedure: as §1

CAKI-1 = test system: CAKI-1
Procedure: as §1

HCC2429 = test system: HCC2429
Procedure: as §1

14169 = test system: 14169
Procedure: as §1

8645 = test system: 8645
Procedure: as §1

PER-891 = test system: PER-891
Procedure: as §1

P896-CL = test system: P896-CL
Procedure: as §1

Row | Compound | IC50 cell viability (PER-535) | IC50 cell viability (PER-704) | IC50 cell viability (PER-536) | IC50 cell viability (PER-624) | IC50 cell viability (WI-38) | IC50 cell viability 11060 | IC50 cell viability (A549) | IC50 cell viability (TC797) | IC50 cell viability 10326 | IC50 cell viability (TY82) | IC50 cell viability (HS-27) | IC50 cell viability (PER-712) | IC50 cell viability (RPMI2650) | IC50 cell viability (PER-403) | IC50 cell viability (CAKI-1) | IC50 cell viability (HCC2429) | IC50 cell viability 14169 | IC50 cell viability 8645 | IC50 cell viability (PER-891) | IC50 cell viability (P896-CL)
1 | C#Cc1cccc(Nc2ncnc3cc(OCCOC)c(OCCOC)cc23)c1 [Erlotinib] | > 10 µM | > 10 µM | > 10 µM | 3.26 µM | 3.12 µM | 8.68 µM | 2.74 µM | > 10 µM | > 10 µM | > 10 µM | 4.47 µM | > 10 µM | > 10 µM | 8.77 µM | > 10 µM | > 10 µM | > 10 µM | 1.16 µM | 7.1 µM | 2.58 µM
2 | Cc1sc2c(c1C)C(c1ccc(Cl)cc1)=N[C@@H](CC(=O)Nc1ccc(O)cc1)c1nnc(C)n1-2 [OTX-015] | 0.622 µM | 0.44 µM | 4.26 µM | 4.27 µM | 0.543 µM | 0.194 µM | 0.784 µM | > 10 µM | 0.00697 µM | 0.137 µM | 2.45 µM | 0.939 µM | > 10 µM | 0.0426 µM | 9.36 µM | 0.0558 µM | 0.0351 µM | 0.0736 µM | 6.72 µM | 0.921 µM
3 | CN(Cc1cnc2nc(N)nc(N)c2n1)c1ccc(C(=O)N[C@@H](CCC(=O)O)C(=O)O)cc1 [Methotrexate] | > 10 µM | 0.106 µM | > 10 µM | 0.0257 µM | > 10 µM | 0.869 µM | 0.0539 µM | 0.267 µM | > 10 µM | 0.136 µM | > 10 µM | 0.132 µM | > 10 µM | 0.0309 µM | > 10 µM | 0.0933 µM | 0.0651 µM | 0.099 µM | > 10 µM | > 10 µM
4 | CCN(CCCOc1ccc2c(Nc3cc(CC(=O)Nc4cccc(F)c4)[nH]n3)ncnc2c1)CCOP(=O)(O)O [Barasertib] | > 10 µM | > 10 µM | > 10 µM | > 10 µM | 6.91 µM | 0.0376 µM | 0.203 µM | > 10 µM | 0.0117 µM | > 10 µM | 1.9 µM | > 10 µM | > 10 µM | 0.0194 µM | > 10 µM | 0.0209 µM | 0.00707 µM | 0.986 µM | > 10 µM | 5.01 µM
5 | CCCOc1ccn2c(C(C)=O)cc(-c3ccccc3S(C)(=O)=O)c2c1 [GSK-2801] | > 10 µM | > 10 µM | > 10 µM | > 10 µM | > 10 µM | > 10 µM | > 10 µM | > 10 µM | > 10 µM | > 10 µM | > 10 µM | > 10 µM | > 10 µM | > 10 µM | > 10 µM | > 10 µM | > 10 µM | > 10 µM | > 10 µM | > 10 µM
